Residue numbers refer to the chain shown, from its start.
Assays:
SIRT1 = target: T1, SIRT1 (Homo sapiens, UniProt Q96EB6); test: SIRT1 activation assay; type: biochemical
T1 sequence (Q96EB6 2-747): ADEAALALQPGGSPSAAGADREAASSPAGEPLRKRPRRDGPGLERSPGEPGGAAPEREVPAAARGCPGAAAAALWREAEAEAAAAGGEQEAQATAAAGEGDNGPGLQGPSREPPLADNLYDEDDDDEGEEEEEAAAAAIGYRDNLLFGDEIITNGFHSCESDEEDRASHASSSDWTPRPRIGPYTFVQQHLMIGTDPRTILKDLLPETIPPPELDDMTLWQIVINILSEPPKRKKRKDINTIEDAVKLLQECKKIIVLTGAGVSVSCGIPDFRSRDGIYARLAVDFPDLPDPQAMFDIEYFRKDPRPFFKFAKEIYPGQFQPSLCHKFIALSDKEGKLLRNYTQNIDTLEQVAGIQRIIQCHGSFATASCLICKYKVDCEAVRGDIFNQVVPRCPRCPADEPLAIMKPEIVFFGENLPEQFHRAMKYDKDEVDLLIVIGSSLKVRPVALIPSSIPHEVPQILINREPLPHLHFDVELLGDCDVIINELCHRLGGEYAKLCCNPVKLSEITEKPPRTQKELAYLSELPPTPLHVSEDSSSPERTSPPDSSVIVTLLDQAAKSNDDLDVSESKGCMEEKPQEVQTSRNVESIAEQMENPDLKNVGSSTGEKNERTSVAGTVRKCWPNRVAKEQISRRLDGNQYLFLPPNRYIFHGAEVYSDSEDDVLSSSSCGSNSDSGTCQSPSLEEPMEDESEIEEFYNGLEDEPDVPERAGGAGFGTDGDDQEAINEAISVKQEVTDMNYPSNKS

SIRT1 K444E = target: T2, SIRT1 K444E (Homo sapiens, UniProt Q96EB6, K444E); test: steady-state kinetics; type: biochemical
T2 sequence (Q96EB6 2-747 K444E): T1 sequence (Q96EB6 2-747) with K443E

Compound	SIRT1 activation assay (Fig. S4C); activation peak concentration (SIRT1) [mM]	steady-state kinetics (KM, kcat), FDL SIRT1 assay with varied NAD+ (SIRT1 K444E)
Oc1ccc(/C=C/c2cc(O)cc(O)c2)cc1 [resveratrol]	1	
NC(=O)c1ccc[n+]([C@@H]2O[C@H](COP(=O)([O-])OP(=O)(O)OC[C@H]3O[C@@H](n4cnc5c(N)ncnc54)[C@H](O)[C@@H]3O)[C@@H](O)[C@H]2O)c1 [NAD^+]		K444E SIRT1 is catalytically more active than WT (higher kcat) and has a significantly lower KM for both substrates

— PMC5407064 (Cell reports, 2017)
